# In patent publication US20220411525A1, “BCMA AS A TARGET FOR T CELL REDIRECTING ANTIBODIES IN B CELL LYMPHOMAS” (Janssen Pharmaceutica NV, priority 2021, published 2022):
# Where “and” joins values, the source holds several entries; their conditions need not be identical. Equal entries are not always repeated.
# Legend:
# CLL derived T cells = test: Activation and degranulation of CLL derived T cells in CLL PBMCs; assay type: cell-based, human; conditions: 96 h
# Experimental: (§1) It was also assessed whether Teclistamab would induce activation and cytotoxicity of CLL derived T cells. To assess activation and degranulation, full PBMCs of CLL patients were treated with 100 ng/mL Teclistamab or control BsAbs for 96 h with or without presence of γ-secretase inhibition. […] For FIGS. 6A-6, CLL PBMCs were stimulated with 100 ng/mL BCMAxCD3, BCMAxnull, nullxCD3 or anti-CD3/CD28 antibodies. Flow cytometry analysis of (FIG. 6A) CD25 and (FIG. 6B) CD107a were performed after 4 days (n=3-5). For FIG. 6C, T cells from CLL patients were isolated and co-cultured in a 5:1 E:T ratio with their autologous CLL for 96 h in the presence or absence of 100 ng/mL BCMAxCD3 DuoBody and were left untreated (−) or treated with 100 nM γ-secretase inhibitor (+). (n=6) The P value was calculated ordinary one-way ANOVA (FIGS. 6A-6B) or paired t test (FIG. 6C). Data are presented as mean±SD. *P<0.05; **P<0.01; ***P<0.001; ****P<0.0001.
# (§2) Activation, cytokine production and degranulation. PBMCs from HD or CLL patients were incubated in the presence of 100 ng/mL BCMAxCD3, BCMAxnull or nullxCD3 or stimulated with CD3 (clone 1XE) and CD28 (clone 15E8) antibodies for 2 days. Where indicated HD PBMCs were co-cultured in a 1:1 E:T ratio with RPMI-8226, JeKo-1, CII or BCWM1. 100 nM γ-secretase inhibitor (Ly411575) was added where indicated. […]
# [1] = system: T cells of healthy donor PBMCs; test: Activation, degranulation and cytokine production of healthy donor T cells co-cultured with B cell malignancy cell lines; assay type: cell-based, human
# Experimental: (§3) Since the different B cell malignancy cell lines express BCMA to different extents, it was explored whether co-culture of these cell lines with the BCMAxCD3 BsAb Teclistamab in presence of HD PBMCs would lead to activation of T cells. To assess this, 4 cell lines were selected based on previously determined BCMA levels: RPMI-8226 (MM, positive control; high BCMA), BCWM.1 (WM, high BCMA), CII (CLL, intermediate BCMA) and JeKo-1 (MCL, low BCMA). Cell lines and age-matched HD PBMCs were cultured in presence of 100 ng/mL Teclistamab or the control BsAbs (BCMAxnull or nullxCD3) with or without 100 nM γ-secretase inhibitor. As a positive control, anti-CD3/CD28 antibodies were added to the co-cultures to induce TCR stimulation.
# (§4) FIGS. 4A-4G provide the results of the assessment, which are that BCMAxCD3 DuoBody® induces activation, degranulation, cytokine secretion and cytotoxicity by T cells in the presence of B cell malignancy cell lines. PBMCs of healthy donors were left unstimulated or stimulated with 100 ng/mL BCMAxCD3 DuoBody®, BCMAxnull, nullxCD3 or anti-CD3/CD28 antibodies. Cells were left untreated (−) or treated with 100nM γ-secretase inhibitor (+). T cells were co-cultured with cell lines RPMI-8226 (multiple myeloma), JeKo-1 (mantle cell lymphoma), BCWM.1 (Waldenstrom's macroglobulinemia) or CII (chronic lymphocytic leukemia) in a 1:1 E:T ratio. After 48 hours activation by CD25 (FIG. 4A), degranulation (FIG. 4B), secretion of IFNy (FIG. 4D), IL-2 (FIG. 4E), TNFα (FIG. 4F), and cytotoxicity (FIG. 4G) were measured by flow cytometry (n=3-14). 4 days after incubation T cell proliferation was assessed by FACS (FIG. 4C) (n=3-9).
# as §2
# [2] = system: T cells of healthy donor PBMCs; test: T cell proliferation of healthy donor PBMCs co-cultured with cell lines; assay type: cell-based, human; conditions: co-culture of HD T cells with B cell malignancy cell lines, 4 days
# Experimental: as §4
# T cell proliferation. PBMCs from HD patients were labelled with CTV and cultured alone or in 1:1 E:T ratio with RPMI-8226, JeKo-1, CII or BCWM1. PBMCs were incubated in the presence of 100 ng/mL BCMAxCD3, BCMAxnull or nullxCD3 or stimulated with CD3 (clone 1XE) and CD28 (clone 15E8) antibodies. 100 nM γ-secretase inhibitor (Ly411575) was added where indicated. After 4 days proliferation was measured by flow cytometry as described above.
# primary CLL cells = test: Cytotoxicity assay, primary CLL cells co-cultured with healthy donor T cells; assay type: cell-based, human; conditions: for average lysis of CLL cells: 48 h; for average lysis of CLL cells / average cell death of CLL cells: 10:1 E:T, per T cell donor; for average cell death of CLL cells: 96h
# Experimental: Since primary CLL samples express BCMA at even lower levels compared to JeKo-1 cell lines, the present inventors explored whether this expression level was still high enough to induce effective lysis of CLL cells. To assess this HD T cells were co-cultured for 48-96 h with primary CLL cells in the presence of 100 ng/mL of Teclistamab with or without 100 nM γ-secretase inhibitor.
# FIGS. 5A-5C illustrate how healthy donor T cells kill primary CLL cells in presence of BCMAxCD3 DuoBody, which is largely dependent on CD8^+ T cells. Measurement of cytotoxicity after PBMCs of healthy donors were left unstimulated or stimulated with 100 ng/mL BCMAxCD3 DuoBody®, in the absence (−) or presence (+) of 100 nM γ-secretase inhibitor. PBMCs were T cells were co-cultured with primary CLL in a 10:1 E:T ratio for (FIG. 5A) 48 h or (FIG. 5B) 96 h. […] (n=8) The P value was calculated by Wilcoxon test (FIG. 5A), paired t test (FIG. 5B) or repeated measures one-way ANOVA (FIG. 5C). Data are presented as mean±SD. *P<0.05; **P<0.01; ***P<0.001.
# Cytotoxicity assay. Cell lines or primary CLL samples were labelled with Cell Trace Violet (CTV, Thermo Fisher Scientific) or carboxyfluorescein diacetate succinimidyl ester (CFSE, ThermoFisher Scientific) according to manufacturer's instructions and co-cultured with healthy donor PBMCs or CLL derived (autologous) T cells in different effector-target (E:T) ratios. Where indicated prior to co-culture CD4 and CD8 T cells were isolated using MACS beads (Miltenyi), according to manufacturer's instructions. Co-cultures were in the presence of 100 ng/mL BCMAxCD3, BCMAxnull or nullxCD3. 100nM γ-secretase inhibitor (Ly411575) was added where indicated. Viability of the target cells was assessed using TO-PRO-3 (Invitrogen) and MitoTracker Orange (Invitrogen) using Flow Cytometry. Specific lysis of target cells was calculated as (% target cell death in treated sample—% cell death target cells in medium control)/(100—% cell death target cells in medium control)*100%. Samples were excluded when cell death in medium controls exceeded 50%.
# autologous CLL cells = test: Cytotoxicity assay, CLL derived T cells co-cultured with autologous CLL cells; assay type: cell-based, human; conditions: 96 h, 5:1 E:T
# Experimental: as §1
# (§5) Cytotoxicity assay. […] Viability of the target cells was assessed using TO-PRO-3 (Invitrogen) and MitoTracker Orange (Invitrogen) using Flow Cytometry. Specific lysis of target cells was calculated as (% target cell death in treated sample—% cell death target cells in medium control)/(100—% cell death target cells in medium control)*100%. […]
# [3] = system: B cell malignancy cell lines (RPMI-8226, JeKo-1, BCWM.1, CII); test: Cytotoxicity assay, cell lines co-cultured with healthy donor PBMCs; assay type: cell-based
# Experimental: as §3, §4, §5
# [4] = 100 ng/mL plus 100 nM γ-secretase inhibitor
# [5] = 100 ng/mL, no γ-secretase inhibitor
# [6] = 100 ng/mL, with 100 nM γ-secretase inhibitor
substance,measurement,setting,value
"Teclistamab: BCMAxCD3 bispecific antibody developed with Genmab DuoBody technology, provided by Janssen Pharmaceuticals",CD25 activation in T cells of CLL patients upon addition of γ-secretase inhibitor,CLL derived T cells; 100 ng/mL plus γ-secretase inhibitor,enhanced
same,CD25 activation in CD4+ and CD8+ T cells of CLL patients,"CLL derived T cells; 100 ng/mL, CLL PBMCs",trend towards increased CD25 activation
same,T cell activation and proliferation upon increasing BCMA levels by γ-secretase inhibition,[1]; [4],not further enhanced
same,activation marker CD25 on CD4+ and CD8+ T cells,"[1]; 100 ng/mL, 2 days co-culture with cell lines, 1:1 E:T",upregulation of the activation marker CD25
same,"CD25 on T cells, PBMCs cultured without a target cell","[1]; 100 ng/mL, no target cell",did not lead to upregulation of CD25
same,T cell proliferation,[2],"resulted in T cell activation, proliferation and cytotoxicity"
same,average lysis of CLL cells,primary CLL cells; [5],12.9% and 16.4%
same,average lysis of CLL cells,primary CLL cells; [6],14.9% and 21.6%
same,killing by HD CD4+ T cells,"primary CLL cells; 100 ng/mL, 96 h, 5:1 E:T, CD4+ T cells only",not able to induce killing
same,lysis by HD CD8+ T cells,"primary CLL cells; 100 ng/mL, 96 h, 5:1 E:T, CD8+ T cells",up to 60%
same,average cell death of CLL cells,primary CLL cells; [5],15.8% and 20%
same,average cell death of CLL cells,primary CLL cells; [6],"25,8% and 27.4%"
same,lysis of CLL cells by healthy donor T cells,"primary CLL cells; summary statement, in presence of teclistamab",up to 40%
same,lysis of autologous CLL cells upon addition of γ-secretase inhibition,autologous CLL cells; [4],slightly increased
same,mean lysis of autologous CLL cells,autologous CLL cells; [5],40%
same,cytotoxicity upon addition of γ-secretase inhibitor,[3]; [4],did not improve
same,lysis of JeKo-1 compared to BCWM.1 or CII cell lines,"[3]; 100 ng/mL, JeKo-1 (low BCMA)",more efficiently lysed
same,cell death of target cells,"[3]; 100 ng/mL, co-culture with HD T cells, 1:1 E:T, 48 hours",induced cell death of target cells
